Counter-ions that a name gives are not always drawn.
Experiments:
skin = format: in vivo, New Zealand white rabbits; conditions: 0.3 ml of aqueous 1 % solution, patch 24 hours, observed 24 hours; four male rabbits
Protocol: (§1) The primary irritation of the skin and ocular mucous membranes by some test compounds mentioned below was checked according to the test methods mentioned below.
A patch test plaster, into which 0.3 ml of an aqueous 1 % solution of a test compound had been infiltrated, was airtightly stuck on each of four male New Zealand white rabbits and kept as such for 24 hours. […] The compounds tested were evaluated on the basis of the following criteria.

ocular mucous membranes = format: in vivo, New Zealand white rabbits; conditions: 0.1 ml aqueous solution dropped into eyelid bag, checked 24 hours after; four male rabbits
Protocol: as §1
The lower eyelids of each of four male New Zealand white rabbits were formed into bags, into which was dropped 0.1 ml of an aqueous surfactant solution, and the upper and lower eyelids were lightly ligated. 24 hours after the dropping, the irritation of the ocular mucous membranes of each rabbit was checked according to the Draize's points mentioned below. The compound tested was evaluated on the basis of the following criteria.

Row | Compound | Primary Skin Irritation (skin) | Primary Mucous Membrane Irritation (ocular mucous membranes)
1 | CCCCCCCCCCCCOCC(O)CNCCCC[C@H](N)C(=O)O (stereo partly drawn) [Compound of Production Example 5, Nε-(2-hydroxy-3-dodecyloxy)propyl-L-lysine hydrochloride] | Minor (Less than 2) | Minor (Less than 10)
2 | CCCCCCCCCCC(O)CN[C@@H](CCCNC(=N)N)C(=O)O.Cl (stereo partly drawn) [Compound of Production Example 7, N-(2-hydroxydodecyl)-L-arginine hydrochloride] | Minor (Less than 2) | Minor (Less than 10)
3 | CCCCCCCCCCCCCCCCCC[N+](C)(C)C.[Cl-] [Stearyltrimethylammonium Chloride, reference compound] | Heavy (4 or more) | Moderate (20 to less than 50)

Reference: patent EP0895778A2, “Cosmetic composition” (Ajinomoto Co., Inc., priority 1997, dated 1999)
